“And” between values parts separate entries of the source, which are not always exact repeats. Identical values can stand only once.
Assay: xn = mol fraction of the nth substance listed

CCCCCCCCCCCC[N+]1(C)CCCC1.O=C([O-])c1ccccc1O + O
100 kPa
Settings | electrical conductivity [S/m]
298.15 K, x1 = 3.592e-05 | 0.00892
298.15 K, x1 = 3.961e-05 | 0.00933
298.15 K, x1 = 4.883e-05 | 0.0111
308.15 K, x1 = 4.883e-05 | 0.0151
318.15 K, x1 = 3.592e-05 | 0.0144
318.15 K, x1 = 5.39e-05 | 0.02
318.15 K, x1 = 5.759e-05 | 0.0215
328.15 K, x1 = 5.39e-05 | 0.0254
328.15 K, x1 = 5.759e-05 | 0.0262

CCCCCC[n+]1ccn(C)c1.F[B-](F)(F)F + O
Settings | viscosity [mPa·s]
298.15 K, 100 kPa, x1 = 0.0153 | 2.79

CCOCC[n+]1ccn(C)c1.C[C@@H](O)[C@H](N)C(=O)[O-] + O
100 kPa
Settings | viscosity
298.15 K, x1 = 0.619 | 1040 mPa·s
313.15 K, x1 = 0.3647 | 245 mPa·s
323.15 K, x1 = 0.3158 | 118.5 mPa·s
323.15 K, x1 = 0.3647 | 125.5 mPa·s
328.15 K, x1 = 0.3158 | 96.1 mPa·s and 99.5 mPa·s
328.15 K, x1 = 0.5081 | 106 mPa·s
328.15 K, x1 = 1 | 115.4 mPa·s

CC[n+]1ccn(C)c1.O=C([O-])C(F)(F)F + O
101 kPa
Settings | electrical conductivity, 298.15 K [S/m] | electrical conductivity, 313.15 K [S/m] | viscosity, 293.15 K [mPa·s] | viscosity, 298.15 K [mPa·s] | viscosity, 303.15 K [mPa·s] | viscosity, 313.15 K [mPa·s]
x1 = 0.001 | 0.3 | 0.41 | 1.01 | 0.9 | 0.8 | 0.66
x1 = 0.003 | 0.79 | 1.1 | 1.05 | 0.93 | 0.84 | 0.69
x1 = 0.004 | 1.2 | 1.6 | 1.1 | 0.98 | 0.87 | 0.72
x1 = 0.006 | 1.6 | 2.2 | 1.16 | 1.03 | 0.92 | 0.75
x1 = 0.009 | 2 | 2.5 | 1.24 | 1.1 | 0.98 | 0.81
x1 = 0.014 | 2.6 | 3.7 | 1.4 | 1.25 | 1.12 | 0.92
x1 = 0.02 | 3.1 | 4.4 | 1.57 | 1.4 | 1.2 | 0.97
x1 = 0.033 | 4 | 5.6 | 2.01 | 1.75 | 1.54 | 1.21
x1 = 0.051 | 4.4 | 6.6 | 2.53 | 2.2 | 1.92 | 1.5
x1 = 0.065 | 4.6 | 6.9 | 3 | 2.58 | 2.24 | 1.74
x1 = 0.108 | 4.5 | 6.9 | 4.39 | 3.76 | 3.25 | 2.49
x1 = 0.159 | 4.2 | 6.3 | 6.17 | 5.28 | 4.55 | 3.46
x1 = 0.243 | 3.5 | 5.3 | 8.98 | 7.65 | 6.56 | 4.96
x1 = 0.406 | 2.5 | 3.7 | – | – | – | –
x1 = 0.418 | – | – | 14.4 | 12.3 | 10.6 | 8
x1 = 0.502 | 2.2 | 3.4 | 17.3 | 14.8 | 12.6 | 9.5
x1 = 0.53 | 2 | 3.1 | 18.7 | 15.9 | 13.6 | 10.2
x1 = 0.759 | 1.5 | 2.3 | 26.8 | 22.7 | 19.3 | 14.3
x1 = 1 | 1 | 1.6 | 39.5 | 32.9 | 27.5 | 19.9

CCn1cc[n+](C)c1.C[C@H](O)C(=O)[O-] + O
298.15 K, 100 kPa
Settings | viscosity [mPa·s]
x2 = 0.3138 | 32.5
x2 = 0.9696 | 1.82

Reference: the CheMixHub ionic liquid set
